Source: patent publication US8557805B2, “Fused ring compound and use thereof” (Takeda Pharmaceutical Company Limited, priority 2008, dated 2013)

Columns and labels:
[1] = molecular target: T1, human liver GK (GST-hLGK1) (Homo sapiens, UniProt P35557); experiment: Determination of GK activity value (Mant-ATP to Mant-ADP conversion, capillary electrophoresis); type: biochemical; conditions: reaction started with 25 mM D-glucose solution, 37° C., 60 min, concentration at midpoint between maximum activity value and control group activity value
T1 construct: with a BamHI site added to immediately before the initiation codon; made in house; host or cells: Escherichia coli BL21 (Stratagene), plasmid pGEX6P-2/hLGK1
T1 sequence (P35557 1-464 isoform P35557-3): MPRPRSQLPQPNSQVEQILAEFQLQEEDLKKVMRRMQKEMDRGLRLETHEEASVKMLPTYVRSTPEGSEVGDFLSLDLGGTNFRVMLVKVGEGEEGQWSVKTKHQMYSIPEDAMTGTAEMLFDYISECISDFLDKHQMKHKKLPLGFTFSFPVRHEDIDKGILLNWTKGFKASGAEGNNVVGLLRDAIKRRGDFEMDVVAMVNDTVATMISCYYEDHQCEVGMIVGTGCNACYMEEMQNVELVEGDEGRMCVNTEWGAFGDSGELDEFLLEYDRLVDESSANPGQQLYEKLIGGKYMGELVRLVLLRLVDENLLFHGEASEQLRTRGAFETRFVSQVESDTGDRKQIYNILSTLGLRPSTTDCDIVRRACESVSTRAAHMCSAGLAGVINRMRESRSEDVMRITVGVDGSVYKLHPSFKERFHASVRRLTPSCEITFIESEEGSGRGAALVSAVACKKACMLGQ
Description: Plasmid DNA to be used for the expression of a protein (GST-hLGK1) containing GST (Glutathione S-transferase) added to the amino terminal of human liver GK in Escherichia coli was prepared as follows.
First, PCR was performed using human liver cDNA (Marathon Ready cDNA, Clontech Laboratories, Inc.) as a template and two kinds of synthetic DNAs (5′-[…]-3′ (SEQ ID NO: 1) and 5′-[…]-3′ (SEQ ID NO: 2)), and the obtained DNA fragment was closed using a TOPO TA Cloning Kit (Invitrogen Corporation). PCR was performed using the obtained plasmid DNA as a template and a synthetic DNA (5′-[…] CAGAG-3′ (SEQ ID NO: 3)) with a BamHI site added to immediately before the initiation codon, and a synthetic DNA (5′-[…]-3′ (SEQ ID NO: 4)) with an EcoRI site added to immediately after the stop codon. The obtained DNA fragment was subcloned to pGEX6P-2 (Amersham Biosciences K.K.) cleaved with BamHI and EcoRI to give a plasmid (pGEX6P-2/hLGK1) for expression of human liver GK.
BL21 strain (Stratagene) transformed with pGEX6P-2/hLGK1 obtained in (1) was cultured with shaking at 37° C. for 14 hr in a 200 ml Erlenmeyer flask containing 50 ml of 100 μg/ml ampicillin-containing LB medium. The culture medium (25 ml) was diluted with 225 ml of 100 μg/ml ampicillin-containing LB medium, and further cultured with shaking at 37° C. for 1 hr in a 1 L Erlenmeyer flask. After culture, the Erlenmeyer flask was cooled on ice, 125 μL of 100 mM isopropyl-thio-β-D-galactopyranoside (IPTG) was added (final concentration 50 μM), and cultured at 17° C. for 20 hr. The culture medium was centrifuged, and the obtained fungus was disrupted by ultrasonication. The object protein (GST-hLGK1) was purified from the supernatant using Glutathione Sepharose 4B (Amersham Biosciences K.K.).
A solution (5 μL) of test compound in 50% dimethyl sulfoxide was added to each well of 384 well black plate (Nalge Nunc International K.K.). Then, a solution (35 μL) obtained by diluting GST-hLGK1 obtained in (2) with measurement buffer (containing 50 mM HEPES (pH 7.4), 200 mM KCl, 5 mM MgCl2, 2.5 mM DTT and 50 μM 2′-(or-3′)-O—(N-methylanthraniloyl)adenosine 5′-triphosphate (Mant-ATP) (Jena Bioscience GmbH)) to 6 μg/mL was added to each well.
Each well was stood at 37° C. for 10 min, and 25 mM D-glucose solution (10 μL) was added to start the reaction.
Each well after the reaction was stood at 37° C. for 60 min, and the reaction was quenched by adding 25 μL of a quenching solution (containing 200 mM HEPES (pH 7.4), 20 mM MgCl2, 200 mM EDTA, 0.03% Triton-X 100, 0.3% Coating 3 reagent (Caliper Life Sciences, Inc.)).
2′-(or -3′)-O—(N-methylanthraniloyl)adenosine 5′-triphosphate (Mant-ATP, substrate) and Mant-ADP (reaction resultant product) were separated from each well after the reaction by a microchip type capillary electrophoresis apparatus 250 HTS (Caliper Life Sciences, Inc.). The reaction rate [(reaction resultant product peak height)/(reaction resultant product peak height+substrate peak height)×100(%)] was calculated from the ratio of the substrate peak height and reaction resultant product peak height obtained by fluorescence detection (excitation wavelength 355 nm, measurement wavelength 460 nm) and used as the index of GK activity.
3.5 As a control group, the reaction rate was calculated in the same manner as above except that “solution in 50% dimethyl sulfoxide (without test compound)” was used instead of “solution of test compound in 50% dimethyl sulfoxide”.
A concentration dependency curve of the test compound was drawn with the percentage obtained by dividing the reaction rate of the well added with the test compound (test compound addition group) by the reaction rate of the control group was taken as the GK activity value of the test compound, and the concentration of the test compound at the midpoint between the maximum activity value of the test compound addition group and the control group activity value is shown as EC50 value.

Compound	melting point [°C]	EC50 [1] [nM]
Cc1cc(Oc2ccc(S(C)(=O)=O)nc2)cc2cc(C3=NCC(CC(N)=O)S3)[nH]c12 (stereo not shown) [Example 72, 2-[2-(7-Methyl-5-{[6-(methylsulfonyl)pyridin-3-yl]oxy}-1H-indol-2-yl)-4,5-dihydro-1,3-thiazol-5-yl]acetamide]	202 to 203	29
COCc1ccc(Oc2cc(OC3CCOCC3)c3[nH]c(C4=NCC(CC(C)(C)O)S4)cc3c2)cn1 (stereo not shown) [Example 8, 1-{2-[5-{[6-(Methoxymethyl)pyridin-3-yl]oxy}-7-(tetrahydro-2H-pyran-4-yloxy)-1H-indol-2-yl]-4,5-dihydro-1,3-thiazol-5-yl}-2-methylpropan-2-ol]	108 to 110	18
CNC(=O)CC1CN=C(c2cc3cc(Oc4ccc(S(C)(=O)=O)nc4)ccc3[nH]2)S1 (single isomer, unassigned) [Example 78, N-Methyl-2-[2-(5-{[6-(methylsulfonyl)pyridin-3-yl]oxy}-1H-indol-2-yl)-4,5-dihydro-1,3-thiazol-5-yl]acetamide]	178 to 180	80
Cc1cc(Oc2ccc(S(C)(=O)=O)nc2)cc2cc(C3=NCC(CC(=O)N4CC[S+]([O-])CC4)S3)[nH]c12 (stereo not shown) [Example 81, 7-Methyl-5-{[6-(methylsulfonyl)pyridin-3-yl]oxy}-2-{5-[2-(1-oxidothiomorpholin-4-yl)-2-oxoethyl]-4,5-dihydro-1,3-thiazol-2-yl}-1H-indole]	157 to 160	48
CC(C)(O)CC1CN=C(c2cc3cc(Oc4ccc(S(C)(=O)=O)cn4)cc(OC4CCOCC4)c3[nH]2)S1 (stereo not shown) [Example 14, 2-Methyl-1-{2-[5-{[5-(methylsulfonyl)pyridin-2-yl]oxy}-7-(tetrahydro-2H-pyran-4-yloxy)-1H-indol-2-yl]-4,5-dihydro-1,3-thiazol-5-yl}propan-2-ol]	129 to 130	61
CC(C)(O)CC1CN=C(c2cc3cc(Oc4ccc(S(C)(=O)=O)cc4)cc(OC4CCOCC4)c3[nH]2)S1 (stereo not shown) [Example 3, 2-Methyl-1-(2-{5-[4-(methylsulfonyl)phenoxy]-7-(tetrahydro-2H-pyran-4-yloxy)-1H-indol-2-yl}-4,5-dihydro-1,3-thiazol-5-yl)propan-2-ol]	163 to 164	15
CN(C)C(=O)CC1CN=C(c2cc3cc(Oc4ccc(S(C)(=O)=O)nc4)ccc3[nH]2)S1 (stereo not shown) [Example 55, N,N-Dimethyl-2-[2-(5-{[6-(methylsulfonyl)pyridin-3-yl]oxy}-1H-indol-2-yl)-4,5-dihydro-1,3-thiazol-5-yl]acetamide]	162 to 164	180
CNC(=O)CC1CN=C(c2cc3cc(Oc4ccc(S(C)(=O)=O)nc4)ccc3[nH]2)S1 (stereo not shown) [Example 53, N-Methyl-2-[2-(5-{[6-(methylsulfonyl)pyridin-3-yl]oxy}-1H-indol-2-yl)-4,5-dihydro-1,3-thiazol-5-yl]acetamide]	150 to 152	130
CCc1cc(Oc2ccc(S(C)(=O)=O)nc2)cc2cc(C3=NCC(CC(=O)N4CC[S+]([O-])CC4)S3)[nH]c12 (stereo not shown) [Example 82, 7-Ethyl-5-{[6-(methylsulfonyl)pyridin-3-yl]oxy}-2-{5-[2-(1-oxidothiomorpholin-4-yl)-2-oxoethyl]-4,5-dihydro-1,3-thiazol-2-yl}-1H-indole]	194 to 196	18
CS(=O)(=O)c1ccc(Oc2ccc3[nH]c(C4=NCC(CC(=O)NCC(F)(F)F)S4)cc3c2)cn1 (stereo not shown) [Example 56, 2-[2-(5-{[6-(Methylsulfonyl)pyridin-3-yl]oxy}-1H-indol-2-yl)-4,5-dihydro-1,3-thiazol-5-yl]-N-(2,2,2-trifluoroethyl)acetamide]	234 to 235	73
CCc1cc(Oc2ccc(S(C)(=O)=O)nc2)cc2cc(C3=NCC(CC(N)=O)S3)[nH]c12 (stereo not shown) [Example 61, 2-[2-(7-Ethyl-5-{[6-(methylsulfonyl)pyridin-3-yl]oxy}-1H-indol-2-yl)-4,5-dihydro-1,3-thiazol-5-yl]acetamide]	190 to 191	16
